This note sets out measurements from article PMC7587356, “High-Throughput Screening for Inhibitors of the SARS-CoV-2 Protease Using a FRET-Biosensor” (Molecules, 2020).

Counter-ions that a name gives are not always drawn. Like-named read-outs stand apart in the source and are kept apart here.

The target of the assay is SARS-CoV-2 3CLpro (Severe acute respiratory syndrome coronavirus 2, UniProt P0DTD1). The experiment in a line: biochemical. The assay is classed as biochemical. Set-up: Replicate_1 / Replicate_2 / mean / mean (LOPAC_screen_w_protease): unit not given here. The settings on record: for inhibition at 5 µM: 4 h; for mean (LOPAC screen with protease) / Replicate_1 (LOPAC screen with protease) / Replicate_2 (LOPAC screen with protease): primary screen at 5 µM.

The mark [1] stands for this setting: sheet LOPAC_screen_w_protease, LOPAC1280 primary screen with protease, 5 µM compound, mean of the two replicates.
[2] abbreviates: sheet LOPAC_screen_w_protease, LOPAC1280 primary screen with protease, 5 µM compound, replicate 1.
The mark [3] stands for this setting: sheet LOPAC_screen_w_protease, LOPAC1280 primary screen with protease, 5 µM compound, replicate 2.
The mark [4] stands for this setting: sheet LOPAC_screen_w_protease, mean of two replicates.
[5] abbreviates: sheet LOPAC_screen_w_protease, replicate 1.
Setting [6] is: sheet LOPAC_screen_w_protease, replicate 2.
Setting [7] is: LOPAC1280 primary screen with protease, 5 µM compound, mean of two replicates.
[8] abbreviates: LOPAC1280 primary screen with protease, 5 µM compound, mean of the two replicates.
Setting [9] is: LOPAC1280 primary screen with protease, 5 µM compound, replicate 1.
The mark [10] stands for this setting: LOPAC1280 primary screen with protease, 5 µM compound, replicate 2.
Setting [11] is: sheet LOPAC_screen_w_protease, primary screen with protease, 5 µM, mean of two replicates, read-out: mean.
Setting [12] is: sheet LOPAC_screen_w_protease, primary screen with protease, 5 µM, replicate 1, read-out: Replicate_1.
[13] abbreviates: sheet LOPAC_screen_w_protease, primary screen with protease, 5 µM, replicate 2, read-out: Replicate_2.
Where [14] appears, read: sheet LOPAC_screen_w_protease, LOPAC1280 at 5 µM, mean of two replicates, read-out: mean.
[15] abbreviates: sheet LOPAC_screen_w_protease, LOPAC1280 at 5 µM, replicate 1, read-out: Replicate_1.
The mark [16] stands for this setting: sheet LOPAC_screen_w_protease, LOPAC1280 at 5 µM, replicate 2, read-out: Replicate_2.
Where [17] appears, read: sheet LOPAC_screen_w_protease, primary screen with protease, compound at 5 µM, mean of two replicates, read-out: mean.
The mark [18] stands for this setting: sheet LOPAC_screen_w_protease, primary screen with protease, compound at 5 µM, replicate 1, read-out: Replicate_1.
Setting [19] is: sheet LOPAC_screen_w_protease, primary screen with protease, compound at 5 µM, replicate 2, read-out: Replicate_2.
The mark [20] stands for this setting: sheet LOPAC_screen_w_protease, primary screen with protease, compound at 5 µM, mean of two replicates.
[21] abbreviates: sheet LOPAC_screen_w_protease, primary screen with protease, compound at 5 µM, replicate 1.
Setting [22] is: sheet LOPAC_screen_w_protease, primary screen with protease, compound at 5 µM, replicate 2.
[23] abbreviates: sheet LOPAC_screen_w_protease, primary screen with protease, mean of two replicates, read-out: mean.
The mark [24] stands for this setting: sheet LOPAC_screen_w_protease, primary screen with protease, replicate 1, read-out: Replicate_1.
Setting [25] is: sheet LOPAC_screen_w_protease, primary screen with protease, replicate 2, read-out: Replicate_2.

Turning to `O=C(O)/C=C/C(=O)O.O=C(O)/C=C/C(=O)O.O=C(O)/C=C/C(=O)O.O=C1CCCN1CC#CCN1CCCC1.O=C1CCCN1CC#CCN1CCCC1` [Oxotremorine sesquifumarate salt], the mean under setting [1] was 4.476. This molecule also showed a Replicate_1 under setting [2] of 3.394. The molecule also came in with a Replicate_2 under setting [3] of 5.5586.
Regarding `CC(=O)NCCc1c[nH]c2ccccc12` [N-Acetyltryptamine], the inhibition at 5 µM reads like this: (sheet LOPAC_screen_w_protease, LOPAC1280 primary screen at 5 µM, with protease, mean of the two replicates, read-out: mean) 0.808%; (sheet LOPAC_screen_w_protease, LOPAC1280 primary screen at 5 µM, with protease, replicate 1, read-out: Replicate_1) 1.07%; (sheet LOPAC_screen_w_protease, LOPAC1280 primary screen at 5 µM, with protease, replicate 2, read-out: Replicate_2) 0.543%.
On to `Nc1ncn([C@@H]2O[C@H](CO)[C@@H](O)[C@H]2O)c(=O)n1` [5-azacytidine], for which, under setting [4], the “mean (LOPAC screen with protease)” value is 9.256. Also, under setting [5], the “Replicate_1 (LOPAC screen with protease)” value is listed as 17.5612. Besides, the “Replicate_2 (LOPAC screen with protease)” value under setting [6] was determined as 0.9518.
Regarding `O=C(CCCN1CCC2(CC1)C(=O)NCN2c1ccccc1)c1ccc(F)cc1` [Spiperone hydrochloride], the inhibition at 5 µM by setting is: (LOPAC1280 primary screen with protease, 5 µM compound, replicate 1, read-out: Replicate_1 (LOPAC_screen_w_protease)) 2.31%; (LOPAC1280 primary screen with protease, 5 µM compound, replicate 2, read-out: Replicate_2 (LOPAC_screen_w_protease)) 1.15%. The “mean (LOPAC_screen_w_protease)” value under setting [7] worked out at 1.727.
For `Br.C=CCN1CCc2cccc3c2[C@H]1Cc1ccc(O)c(O)c1-3` [R(-)-N-Allylnorapomorphine hydrobromide], the “mean (LOPAC screen with protease)” value under setting [4] is on record as 97.2039. The “Replicate_1 (LOPAC screen with protease)” value under setting [5] was determined as 99.2109. Further, the “Replicate_2 (LOPAC screen with protease)” value under setting [6] is reported as 95.1969.
For the molecule `CC(=O)NBr` [N-Bromoacetamide], the “mean (LOPAC_screen_w_protease)” value under setting [8] is listed as 1.955. Moreover, the “Replicate_1 (LOPAC_screen_w_protease)” value under setting [9] came out at 1.503. Also, the “Replicate_2 (LOPAC_screen_w_protease)” value under setting [10] is recorded as 2.407.
On to `N[C@@H](Cn1oc(=O)[nH]c1=O)C(=O)O` [(+)-Quisqualic acid], for which the mean (sheet LOPAC_screen_w_protease, LOPAC1280 primary screen at 5 µM, with protease, mean of the two replicates) is 0.4364. In addition, under “sheet LOPAC_screen_w_protease, LOPAC1280 primary screen at 5 µM, with protease, replicate 1”, the Replicate_1 came to 1.4914. Moreover, the Replicate_2 (sheet LOPAC_screen_w_protease, LOPAC1280 primary screen at 5 µM, with protease, replicate 2) is given as -0.6187.
On to `Clc1ccc(C(c2ccccc2Cl)C(Cl)Cl)cc1` (stereo not drawn), for which the mean (sheet LOPAC_screen_w_protease, primary screen with protease, 5 µM, mean of two replicates) is reported as -0.2273. Where the note is “sheet LOPAC_screen_w_protease, primary screen with protease, 5 µM, replicate 1”, the Replicate_1 was 0.8298. For the setting “sheet LOPAC_screen_w_protease, primary screen with protease, 5 µM, replicate 2”, this molecule registered a Replicate_2 of -1.2843.
For the molecule `CN(C)C(=O)Oc1ccc[n+](C)c1` [Pyridostigmine bromide], the inhibition at 5 µM reads like this: under setting [11], 0.333%; under setting [12], 1.4%; under setting [13], -0.737%.
`NC1CCN(O)C1=O` (racemic) [(±)-HA-966] displayed a Replicate_1 of 0.2172, a Replicate_2 of 1.666 and a mean of 0.9415.
With `C#CCOC(=O)C1=CCCN(C)C1` [Arecaidine propargyl ester hydrobromide], the inhibition at 5 µM under setting [14] was found to be 1.23%, the inhibition at 5 µM under setting [15] is 0.854% and the inhibition at 5 µM under setting [16] was 1.62%.
`C#CCN1C(C)=C(C(=O)OC)C(c2cccc([N+](=O)[O-])c2)C(C(=O)OCC)=C1C` (stereo not drawn) [MRS 1845] had a mean under setting [1] of 4.379. Also, under setting [2], the Replicate_1 is 3.994. This molecule came in with a Replicate_2 under setting [3] of 4.765.
As to `O=C1NC(=O)C(c2ccccc2)(c2ccccc2)N1` [5,5-Diphenylhydantoin], the inhibition at 5 µM reads like this: under setting [14], 1.1%; under setting [15], 1.83%; under setting [16], 0.367%.
As to `CCC(=O)N1CCN(C(=O)c2ccccc2)CC1` [DM 235], the “mean (LOPAC_screen_w_protease)” value under setting [7] was found to be 1.365. In addition, the “Replicate_1 (LOPAC_screen_w_protease)” value under setting [9] is listed as 0.6823. Moreover, the “Replicate_2 (LOPAC_screen_w_protease)” value under setting [10] came to 2.048.
Turning to `NS(=O)(=O)c1cc2c(cc1Cl)NC(C1CC3C=CC1C3)NS2(=O)=O` (stereo not drawn) [Cyclothiazide], the inhibition at 5 µM stood at 2.93% under setting [17], 4.25% under setting [18] and 1.61% under setting [19].
On to `CC[C@H](C)[C@H]1O[C@]2(CC[C@@H]1C)C[C@@H]1C[C@@H](C/C=C(\C)[C@@H](O[C@H]3C[C@H](OC)[C@@H](O[C@H]4C[C@H](OC)[C@@H](O)[C@H](C)O4)[C@H](C)O3)[C@@H](C)/C=C/C=C3\CO[C@@H]4[C@H](O)C(C)=C[C@@H](C(=O)O1)[C@]34O)O2` [Ivermectin], for which the mean under setting [20] is recorded as 2.889. For the same molecule, the Replicate_1 under setting [21] is 2.826. Also, under setting [22], the Replicate_2 worked out at 2.952.
In turn, `CC(C)(C)C1(O)CCN2CC3c4ccccc4CCc4cccc(c43)C2C1.Cl` (racemic) [(±)-Butaclamol hydrochloride] returned a Replicate_1 of 4.433, a Replicate_2 of 5.727 and a mean of 5.08.
In the case of `CCSC(=N)Nc1ccc(C(F)(F)F)cc1.Cl` [TFPI hydrochloride], the “mean (LOPAC_screen_w_protease)” value under setting [7] stood at 1.706. Further, the “Replicate_1 (LOPAC_screen_w_protease)” value under setting [9] stood at 2.498. The “Replicate_2 (LOPAC_screen_w_protease)” value under setting [10] is listed as 0.9137.
`Br.CCCN(CCC)[C@@H]1CCc2ccc(O)cc2C1` [R-(+)-7-Hydroxy-DPAT hydrobromide] gave a mean (sheet LOPAC_screen_w_protease, primary screen with protease, mean of two replicates) of 2.2447. For the setting “sheet LOPAC_screen_w_protease, primary screen with protease, replicate 1”, this molecule displayed a Replicate_1 of 2.253. Moreover, the Replicate_2 (sheet LOPAC_screen_w_protease, primary screen with protease, replicate 2) worked out at 2.237.
With `NC(Cc1ccc(Cl)cc1)C(=O)O` (racemic) [(±)-p-Chlorophenylalanine], the mean (sheet LOPAC_screen_w_protease, primary screen of LOPAC1280 at 5 µM with protease, mean of the two replicates) is on record as 3.154. This molecule displayed a Replicate_1 (sheet LOPAC_screen_w_protease, primary screen of LOPAC1280 at 5 µM with protease, replicate 1) of 1.596. Where the note is “sheet LOPAC_screen_w_protease, primary screen of LOPAC1280 at 5 µM with protease, replicate 2”, this molecule registered a Replicate_2 of 4.711.
In the case of `NC(=Nc1ccccc1)NC(=O)c1nc(Cl)c(N)nc1N` [Phenamil methanesulfonate], the inhibition at 5 µM runs as follows: under setting [23], 2.43%; under setting [24], 2.05%; under setting [25], 2.81%.
With `CC(C)Cc1ccc(C(C)C(=O)O)cc1` (racemic) [(±)-Ibuprofen], under setting [8], the “mean (LOPAC_screen_w_protease)” value came out at 1.9945. Also, the “Replicate_1 (LOPAC_screen_w_protease)” value under setting [9] is 3.023. For the same molecule, the “Replicate_2 (LOPAC_screen_w_protease)” value under setting [10] was 0.9655.
With `NC(=O)CN1CCCC1=O` [Piracetam], the inhibition at 5 µM runs as follows: (sheet LOPAC_screen_w_protease, primary screen of LOPAC1280 at 5 µM with protease, mean of the two replicates, read-out: mean) 3.49%; (sheet LOPAC_screen_w_protease, primary screen of LOPAC1280 at 5 µM with protease, replicate 1, read-out: Replicate_1) 5.61%; (sheet LOPAC_screen_w_protease, primary screen of LOPAC1280 at 5 µM with protease, replicate 2, read-out: Replicate_2) 1.37%.
On to `C=CCc1ccccc1OCC(O)CNC1(C)CCC(C(C)(C)NC(=O)CBr)CC1` (stereo not drawn) [Bromoacetyl alprenolol menthane], for which the inhibition at 5 µM under setting [14] worked out at 1.3%, the inhibition at 5 µM under setting [15] worked out at 0.0303% and the inhibition at 5 µM under setting [16] stood at 2.58%.
On to `CCCCc1ccc(C(=O)O)nc1` [Fusaric acid], for which the inhibition at 5 µM is, setting by setting: under setting [23], 2.51%; under setting [24], 3.23%; under setting [25], 1.8%.
In the case of `Nc1nc(N)c2nc(-c3ccccc3)c(N)nc2n1` [Triamterene], the inhibition at 5 µM by setting is: under setting [11], -0.222%; under setting [12], 2.19%; under setting [13], -2.63%.
On to `OC(CN1CCC(Cc2ccc(F)cc2)CC1)c1ccc(Cl)cc1` (stereo not drawn) [Eliprodil], for which the inhibition at 5 µM worked out at 2.62% under setting [17], 2.73% under setting [18] and 2.52% under setting [19].
For the molecule `CC(=N)NCCC[C@H](N)C(=O)O.Cl`, the mean under setting [20] worked out at 2.835. The molecule further had a Replicate_1 under setting [21] of 2.586. Further, under setting [22], the Replicate_2 was 3.084.
Regarding `Nc1ccn([C@H]2CC[C@@H](CO)O2)c(=O)n1` [2',3'-dideoxycytidine], the inhibition at 5 µM under setting [14] was 1.06%, the inhibition at 5 µM under setting [15] was found to be 1.73% and the inhibition at 5 µM under setting [16] came to 0.388%.
